Source: PMC9814544 (Communications Chemistry, 2020)
Several values for one entry are separate records, joined by “and”; a condition that tells them apart may be missing. Equal values may be shown once. Entries after “also recorded” stand apart in the source; their conditions may differ.

Legend:
LOX129 = test system: T1, LOX129; experiment: STD-NMR binding, LOX129; design: species or system human; conditions: 5 µM LOX129, 250 µM compound; n = 1
T1 construct: 6His-tag with thrombin cleavage site (N, cleaved yes); made in house; host or cells: E. coli SHuffle cells (New England BioLabs), pET28a
Method: Selected cluster representatives were analyzed by multiple biophysical methods to further validate and characterize the identified compounds.
STD NMR binding experiments[51] were performed in 2.5 mm NMR tubes on a Bruker AVII+ 600 MHz spectrometer equipped with a 5 mm cryo-TCI probe and z-gradients. 5 μM LOX129 was incubated with 250 μM BI-0115 in 25 mM Na-phosphate, 100 mM NaCl pH 7.5 in D2O at 298 K and a total d6-DMSO concentration of 1%. The on- and off-resonance spectra were recorded in an interleaved fashion with 256 transients, respectively. Saturation was achieved by irradiation with a Gaussian pulse train for 3 s at resonance frequencies of 100 Hz and 20 kHz, respectively. Residual protein signals were suppressed by employing a 30 ms spin lock pulse prior to acquisition. Water suppression was achieved by a WATERGATE sequence employing a double gradient echo[53]. The signal intensity in the saturation transfer difference spectrum was normalized by the following equation to yield the %STD value: %STD = 100 * (((I(0)-I(sat))/I(0))), where I(0) is the intensity of one signal in the off-resonance and I(sat) the intensity of one signal in the on-resonance spectrum, respectively. Topspin 3.0 (Bruker Biospin) was used to process and analyze data.

[1] = test system: panel of GPCRs, drug transporters, ion channels, nuclear receptors, kinases, and other non-kinase enzymes; experiment: Eurofins CEREP off-target panel; conditions: at 10 µM; measured once
Method: To assess potential off-target liabilities, BI-0115 was tested on a panel of assays across various key pharmacological target classes (GPCRs, drug transporters, ion channels, nuclear receptors, kinases, and other non-kinase enzymes; Eurofins CEREP, France). […] Although the compound solubility is low, it was sufficient to get a saturable dose response in the cellular assay and the various biophysical assays. Permeability, as measured with the PAMPA assay is good.

[2] = PAMPA passive permeability; type: in vitro ADME
Text: The PAMPA assay provides data on the passive permeability of test compounds through immobilized artificial phospholipid membranes. The method used was extensively described previously. The number of experiments for BI-0115 is n = 1.

LOX129 (LOX-1 129-273) = target: T2, LOX129 (LOX-1 129-273) (Homo sapiens, UniProt P78380); experiment: Isothermal titration calorimetry; type: binding
T2 construct: 6His-tag with thrombin cleavage site (N, cleaved yes); made in house; host or cells: E. coli SHuffle cells (New England BioLabs), pET28a
Method: For additional biophysical profiling of the specific SPR binders, isothermal titration calorimetry (ITC) was used. Due to limited solubility of the compounds, an inverse setup was used by titrating LOX129 into compound solution. The mean Kd value of three independent measurements is 7 µM (Supplementary Table 4).
Isothermal titration calorimetry experiments were conducted on a MicroCal iTC200 instrument (Malvern) using LOX-1 that had been passed through a PD-10 desalting column (GE Healthcare) equilibrated with 20 mM Tris pH 7.3 and 150 mM NaCl. Complete saturation of 35 µM, respectively 40 µM LOX inhibitor was typically achieved by injecting 18× 2 µl aliquots of 300 µM LOX-1 at a temperature of 25 °C. As a control 300 µM LOX-1 was injected in buffer (n = 1, Supplementary Fig. 19).
The thermodynamic binding parameters were extracted by non-linear regression analysis of the binding isotherms (MicroCal PEAQ-ITC Analysis Software). A single-site binding model was applied yielding the binding enthalpy (ΔH), stoichiometry (n), entropy (ΔS) and association constant (Ka). The binding isotherm of protein in buffer control was not subtracted during data evaluation.

[3] = AF dye fluorescence quenching assay; conditions: at 30 µM; n = 1
Method: Employing filter criteria like < 65% control in the primary assay and a minimum difference of 30% to the SR-B1 counter screen, about 3300 compounds remained. These compounds were tested in concentration response using both assay formats (Supplementary Fig. 1). To qualify the identified compounds further we developed additional assays with the goal to identify compounds that merely quenched the AF dye fluorescence. In this assay, the fluorescence signal of human AF647- or AF594-labeled oxLDL was recorded in the presence and absence of compound. Only compounds without relevant quenching were subsequently selected for further analysis.
Furthermore, quenching assays were established to eliminate compounds showing quenching of the AF594 or AF647 dye fluorescence. For this, human oxLDL labeled with either AF594 or AF647 was incubated with compound and the fluorescence signal with and without compound was measured to determine the quenching of the fluorescence. For both compounds quenching of fluorescence has been tested with n = 1.

hERG channel = target: T3, hERG channel (Homo sapiens, UniProt Q12809); experiment: hERG patch-clamp in HEK293 cells; type: cell-based
T3 construct: expressed in transfected cells; host or cells: HEK293
T3 sequence (Q12809 whole entry): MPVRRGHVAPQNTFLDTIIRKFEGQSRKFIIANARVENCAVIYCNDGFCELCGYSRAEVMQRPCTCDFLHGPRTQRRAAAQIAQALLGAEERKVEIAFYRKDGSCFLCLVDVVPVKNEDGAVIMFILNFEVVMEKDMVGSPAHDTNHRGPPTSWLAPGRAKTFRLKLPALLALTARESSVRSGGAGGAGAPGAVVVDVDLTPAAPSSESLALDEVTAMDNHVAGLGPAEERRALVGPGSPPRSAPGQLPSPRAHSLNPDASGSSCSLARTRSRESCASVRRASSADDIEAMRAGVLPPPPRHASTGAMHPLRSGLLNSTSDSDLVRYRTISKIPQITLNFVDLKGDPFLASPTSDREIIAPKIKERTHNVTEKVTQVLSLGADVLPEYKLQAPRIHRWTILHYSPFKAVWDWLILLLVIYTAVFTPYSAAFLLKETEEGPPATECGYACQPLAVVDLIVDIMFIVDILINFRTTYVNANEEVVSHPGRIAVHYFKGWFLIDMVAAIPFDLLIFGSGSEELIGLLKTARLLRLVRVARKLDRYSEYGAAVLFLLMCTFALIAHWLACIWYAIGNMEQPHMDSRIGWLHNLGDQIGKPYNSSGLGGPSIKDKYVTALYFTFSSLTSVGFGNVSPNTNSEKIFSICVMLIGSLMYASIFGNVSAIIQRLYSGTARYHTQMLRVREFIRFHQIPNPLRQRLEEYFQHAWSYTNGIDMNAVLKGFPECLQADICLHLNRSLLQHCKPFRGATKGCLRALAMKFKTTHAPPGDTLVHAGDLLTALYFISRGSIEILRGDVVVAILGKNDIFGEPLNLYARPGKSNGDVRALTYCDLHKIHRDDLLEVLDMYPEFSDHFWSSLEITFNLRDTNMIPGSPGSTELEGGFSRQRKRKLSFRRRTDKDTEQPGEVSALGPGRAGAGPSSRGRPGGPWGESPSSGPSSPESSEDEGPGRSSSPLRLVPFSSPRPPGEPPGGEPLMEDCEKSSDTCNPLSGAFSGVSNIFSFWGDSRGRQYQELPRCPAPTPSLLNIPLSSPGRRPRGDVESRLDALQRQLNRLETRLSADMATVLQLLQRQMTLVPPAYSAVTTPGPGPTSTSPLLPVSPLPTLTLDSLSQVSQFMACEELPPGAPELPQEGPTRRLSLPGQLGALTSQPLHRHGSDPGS
Method: hERG-mediated membrane currents are recorded in HEK (human embryonic kidney) 293 cells stably transfected with hERG cDNA, using the whole-cell configuration of the patch-clamp technique as previously described. The number of experiments for BI-0115 is n = 1.

- STD-NMR (LOX129): binding
- CEREP profile [1]: very clean profile; also recorded: clean
- Papp ([2]; PAMPA, n = 1): 1.5 ×10⁻⁶ cm/s
- Permeability, PAMPA assay ([2]; in words): good
- ITC thermodynamic driving force (LOX129 (LOX-1 129-273); in words): strong entropic contribution
- Kd (LOX129 (LOX-1 129-273); mean of n = 3, 300 µM LOX129 dimer titrated into compound, 25 °C, read-out: ITC Kd): 7 µM and 6.99 µM
- ITC N (molar ratio protein:inhibitor) (LOX129 (LOX-1 129-273); stoichiometry, mean of n = 3): 1.8 and 1.77 ±0.34
Compound: CCCN1C(=O)c2ccc(Cl)cc2Nc2ncccc21 [BI-0115]
- Quench Assay [3]: −9.1%
- inhibition of the hERG channel (hERG channel; in words): no inhibition
- IC50 (hERG channel; whole-cell patch-clamp, n = 1): > 10 µM
